Converted amounts (≈) assume the structure as drawn. Like-named read-outs stand apart in the source and are kept apart here. A value given as a limit tells only on which side of the number the result lay.

The results in this text go back to patent US20260000596A1, “SEMI-SYNTHETIC RHAMNOLIPIDS” (The Procter & Gamble Company, priority 2024, published 2026).

Assay type in all cases: cell-based
Assay [1] relates to Escherichia coli ATCC 8739. In words: Minimal Kill Concentration Assay (MKCA), E. coli. The note with it: 20-minute contact time; for MBC: Escherichia coli, ATCC8739, 20 min, read-out: E. coli MKC (ppm). On the procedure: (§1) The MKC assay is a 96 well plate method to determine the minimum concentration of a test material or composition needed to kill Gram-negative and Gram-positive bacteria (Escherichia coli ATCC 8739 and Staphylococcus aureus ATCC 6538, respectively). The bacterial suspensions are prepared from 10× freezer stocks with 15% glycerol. The freezer stocks are centrifuged at 13,000×g (Eppendorf Centrifuge […] No. 541705483) for 1 minute. The supernatant is removed, and the cell pellet is resuspended in 1 mL saline (Sodium chloride solution 0.9%, Cytiva REF: Z1376), and then transferred to 9 mL saline. The target cfu/ml is 10^8, which is confirmed via serial diluting and plating on TSA plates (Tryptic Soy Agar-Sigma-Aldrich Cat #22091). Then 50 μL (25 μL if low on test materials) of bacteria is added to each well of a 96 well 0.5 mL V-Bottom plate (Greiner bio-one REF: 786201) to make a bacteria plate, one separate plate for each bacterium. The dilutions of the test compounds are prepared in a separate 96 well plate. The test compounds are tested at six dilutions in duplicates or with no replication diluted across the entire plate. The test compounds are prepared in Dimethyl Sulfoxide (Sigma Aldrich GR ACS Cat. No: MX1458-6) or sterile water at 2× the intended test concentration, and then serially diluted in the appropriate vehicle 1:2 across the plate using a multichannel. 50 μL (25 μL if low on test materials) from the test compound plate is added to each well in the bacteria plate all at once using an Integra VIAFLOW 96 channel pipette (Model: VIAFLO 96) and the Integra 300 μL Head (Part No. 6103). With addition of the 2× compounds bacteria plate, the compounds are diluted to a 1× test concentration. The addition of the test compounds to the bacteria wells starts the 20-minute contact time. The plates are mixed well using a Mix-Mate (Eppendorf SE). After 20 minutes, 1 μL from each well of the bacteria plate is transferred to premade Tryptic Soy Agar (TSA) plates (OmniTray Cell Culture Treated w/Lid Sterile, Cat. No: 165218) for spot plating using the Integra VIAFLOW 96 with the Integra 12.5 μL head (Part No. 6101). Then 4 μL from each well of the bacteria/compound plate is transferred to another 96 well plate containing 36 μL of neutralizer broth Modified Letheen Broth (BD Difco Letheen Broth, Modified REF 263010). The contact time is stopped at 20 minutes once the compound plate is neutralized. The plates are mixed well using a Mix-Mate and then 1 μL of the neutralizer+sample mix is transferred to a TSA OmniTray plate using the Integra VIAFLOW and Integra 12.5 μL head. The TSA spot plates are then incubated overnight for 20 hours at 37° C. in an Incubator. This process is done for both bacteria species. After overnight incubation, the plates are removed from the incubator and the results recorded by observing which dilutions had bacterial kill/growth. The last dilution that had kill for both replicates is recorded as the MKC. A positive control of Benzalkonium chloride (Sigma Aldrich Cat. No.: 12060-5G) and vehicle controls are always included in the test.

Assay [2] deals with Staphylococcus aureus ATCC 6538. In words: Minimal Kill Concentration Assay (MKCA), S. aureus. The note with it: 20-minute contact time; for minimal kill concentration (20-minute contact): Staphylococcus aureus, ATCC6538, 20 min, read-out: S. aureus MKC (ppm). On the procedure:
as §1

The subject of assay [3] is Staphylococcus aureus ATCC #6538. In words: Minimum Inhibitory Concentration (MIC) Assay with Minimum Biocidal Concentration (MBC). The note with it: for MIC / MBC: Staphylococcus aureus, ATCC6538, 24 h; for MIC: read-out: S. aureus MIC (ppm); for S. aureus MIC (ppm) / S. aureus MBC (ppm): Table 1.5; for S. aureus MIC (ppm): >=50% inhibition, 24 hrs at 35° C.; for S. aureus MBC (ppm): no visible growth; for MBC: read-out: S. aureus MBC (ppm). As for the experimental part:
The Minimum Inhibitory Concentration (MIC) Assay is a 96-well high throughput method that determines the minimum concentration of an active required to inhibit the growth of microorganisms. Organism preparation: Compounds were evaluated against the following microorganisms: Staphylococcus aureus ATCC #6538 (American Type Culture Collection, Manassas, Virginia, USA). To prepare bacteria solutions, bacteria were streaked on Tryptic Soy Agar (TSA) and incubated at 30-35° C. for 18-24 hrs. Confluent growth was transferred to saline (0.85% NaCl) and turbidometrically adjusted to a target concentration of 10^7-10^8 CFU/ml. This inoculum solution was further diluted 1:1000 in Tryptic Soy Broth (pH 7) for assay use. Assay: Two-fold serial dilutions were prepared in Dimethylsulfoxide (DMSO, Thermo Scientific Pierce DMSO, Sequencing Grade) or sterile water for each test sample. In a sterile 96-well plate, each dilution was further diluted in broth inoculum such that each well contained 5% dilution and 95% broth inoculum. Bacteria plates were incubated on an orbital shaker (Heidolph Titramax 1000 Vibrating Platform Shaker, 200-300 rpm) for 24±2 hrs at 35° C. After incubation, the optical density (OD) of each well was measured in a spectrophotometer (Victor Nivo Multimode Plate Reader) at 600 nm. […] To determine the Minimum Biocidal Concentration (MBC), 2 ul from each well was pipetted onto neutralizing agar (Modified Letheen Agar with Tween) and incubated for 24 hrs at 30-35° C. The MBC was determined as the most dilute concentration with no visible growth.

Where [4] appears, read: Table 4, derivatized rhamnolipids, solvent DMSO.

For orientation: MIC means the least concentration at which growth counts as inhibited. As for `CCCCCCCC(O)CC(=O)O` (racemic) [(±)-3-Hydroxydecanoic acid, reference compound], the MBC in assay [1] (Table 1.4b, solvent water) was determined as 753 mg/L (≈ 4 mM). For the same molecule, in assay [2] (Table 1.4b, solvent water), the minimal kill concentration (20-minute contact) was 753 µg/mL. In assay [3], the MIC came out at 1130 mg/L (≈ 6 mM).

On to `CCCCCC(O)CC(=O)O` (racemic) [(±)-3-Hydroxyoctanoic acid, reference compound], for which the MBC in assay [1] (Table 1.4b, solvent water) was above 641 mg/L. Also, the minimal kill concentration (20-minute contact) in assay [2] (Table 1.4b, solvent water) was above 641 µg/mL.

As for `CCCCCCCCCC(O)CC(=O)O` (racemic) [DL-β-Hydroxylauric acid, reference compound], in assay [1] (Table 1.4b, solvent water), the “E. coli MKC (ppm)” value is above 865 ppm. Also, the “S. aureus MKC (ppm)” value in assay [2] (Table 1.4b, solvent water) was above 865 ppm. In assay [3] (solvent DMSO), the “S. aureus MIC (ppm)” value is given as 325 ppm and the “S. aureus MBC (ppm)” value was determined as 650 ppm.

As for `CCCCCCCCCCCC(O)CC(=O)O` (racemic) [DL-β-Hydroxymyristic acid, reference compound], in assay [1] (Table 1.4b, solvent DMSO), the “E. coli MKC (ppm)” value was 122 ppm. Further, the “S. aureus MKC (ppm)” value in assay [2] (Table 1.4b, solvent DMSO) was 244 ppm. In assay [3] (solvent DMSO), the “S. aureus MIC (ppm)” value was 365 ppm and the “S. aureus MBC (ppm)” value was found to be 731 ppm.

Regarding `CCCCCCCCCCCCCC(O)CC(=O)O` (racemic) [DL-β-Hydroxypalmitic acid, reference compound], in assay [1] (Table 1.4b, solvent DMSO), the “E. coli MKC (ppm)” value turned out to be 136 ppm. The “S. aureus MKC (ppm)” value in assay [2] (Table 1.4b, solvent DMSO) was above 1090 ppm. Also, in assay [3] (solvent DMSO), the “S. aureus MIC (ppm)” value amounted to 102 ppm and the “S. aureus MBC (ppm)” value is listed as 204 ppm.

With `CCCCCCCC(CC(=O)NC)O[C@@H]1O[C@@H](C)[C@H](O)[C@@H](O)[C@H]1O[C@H]1O[C@@H](C)[C@@H](O)[C@H](O)[C@@H]1O` (stereo partly drawn) [3-(((2R,3R,4R,5R,6S)-4,5-dihydroxy-6-methyl-3-(((2R,3S,4S,5S,6S)-3,4,5-trihydroxy-6-methyltetrahydro-2H-pyran-2-yl)oxy)tetrahydro-2H-pyran-2-yl)oxy)-N-methyldecanamide], the MBC in assay [1] (setting [4]) was above 4940 mg/L; in assay [3] (Table 5, solvent DMSO), above 1970 mg/L. The minimal kill concentration (20-minute contact) in assay [2] (setting [4]) was above 4940 µg/mL. Also, in assay [3] (Table 5, solvent DMSO), the MIC is above 1970 mg/L.

Turning to `CCCCCCCC(CC(=O)NCC(CC)CCCC)O[C@@H]1O[C@@H](C)[C@H](O)[C@@H](O)[C@H]1O[C@@H]1O[C@@H](C)[C@H](O)[C@@H](O)[C@H]1O` (stereo partly drawn) [3-(((2R,3R,4R,5R,6S)-4,5-dihydroxy-6-methyl-3-(((2S,3R,4R,5R,6S)-3,4,5-trihydroxy-6-methyltetrahydro-2H-pyran-2-yl)oxy)tetrahydro-2H-pyran-2-yl)oxy)-N-(2-ethylhexyl)decanamide], the MBC in assay [1] (setting [4]) is above 5920 mg/L. In assay [2] (setting [4]), the minimal kill concentration (20-minute contact) stood at 2960 µg/mL. For the same molecule, in assay [3] (Table 5, solvent DMSO), the MBC was 592 mg/L (≈ 1 mM) and the MIC was determined as 296 mg/L (≈ 0.5 mM).

As to `CCCCCCCC(CC(=O)NCCO)O[C@@H]1O[C@@H](C)[C@H](O)[C@@H](O)[C@H]1O[C@@H]1O[C@@H](C)[C@H](O)[C@@H](O)[C@H]1O` (stereo partly drawn) [3-(((2R,3R,4R,5R,6S)-4,5-dihydroxy-6-methyl-3-(((2S,3R,4R,5R,6S)-3,4,5-trihydroxy-6-methyltetrahydro-2H-pyran-2-yl)oxy)tetrahydro-2H-pyran-2-yl)oxy)-N-(2-hydroxyethyl)decanamide], the MBC in assay [1] (setting [4]) is above 5240 mg/L. Further, in assay [2] (setting [4]), the minimal kill concentration (20-minute contact) is above 5240 µg/mL. Also, in assay [3] (Table 5, solvent DMSO), the MBC is above 2090 mg/L and the MIC is above 2090 mg/L.

As for `CCCCCCCC(CC(=O)N(C)OC)O[C@@H]1O[C@@H](C)[C@H](O)[C@@H](O)[C@H]1O[C@@H]1O[C@@H](C)[C@H](O)[C@@H](O)[C@H]1O` (stereo partly drawn) [3-(((2R,3R,4R,5R,6S)-4,5-dihydroxy-6-methyl-3-(((2S,3R,4R,5R,6S)-3,4,5-trihydroxy-6-methyltetrahydro-2H-pyran-2-yl)oxy)tetrahydro-2H-pyran-2-yl)oxy)-N-methoxy-N-methyldecanamide], the MBC in assay [1] (setting [4]) was above 5240 mg/L. For the same molecule, the minimal kill concentration (20-minute contact) in assay [2] (setting [4]) is above 5240 µg/mL. Also, in assay [3] (Table 5, solvent DMSO), the MBC is above 2090 mg/L and the MIC worked out at 2090 mg/L (≈ 4 mM).

On to `CCCCCCCC(CC(=O)N(C)C)O[C@@H]1O[C@@H](C)[C@H](O)[C@@H](O)[C@H]1O[C@@H]1O[C@H](C)C(O)[C@@H](O)[C@H]1O` (stereo partly drawn) [3-(((2R,3R,4R,5R,6S)-4,5-dihydroxy-6-methyl-3-(((2S,3R,4R,6R)-3,4,5-trihydroxy-6-methyltetrahydro-2H-pyran-2-yl)oxy)tetrahydro-2H-pyran-2-yl)oxy)-N,N-dimethyldecanamide], for which the MBC in assay [1] (setting [4]) is above 5070 mg/L. Also, in assay [2] (setting [4]), the minimal kill concentration (20-minute contact) is above 5070 µg/mL. Moreover, in assay [3] (Table 5, solvent DMSO), the MBC was above 508 mg/L and the MIC is above 508 mg/L.

For `CCCCCCCC(CC(=O)O)O[C@@H]1O[C@@H](C)[C@H](O)[C@@H](O)[C@H]1O[C@@H]1O[C@H](C)C(O)[C@@H](O)[C@H]1O` (stereo partly drawn) [3-(((2R,3R,4R,5R,6S)-4,5-dihydroxy-6-methyl-3-(((2S,3R,4R,6R)-3,4,5-trihydroxy-6-methyltetrahydro-2H-pyran-2-yl)oxy)tetrahydro-2H-pyran-2-yl)oxy)decanoic acid], the MBC in assay [1] (setting [4]) is above 4810 mg/L. Also, the minimal kill concentration (20-minute contact) in assay [2] (setting [4]) was above 4810 µg/mL. For the same molecule, in assay [3] (Table 5, solvent DMSO), the MBC was above 1920 mg/L and the MIC was above 1920 mg/L.

For the molecule `CCCCCCCCC[C@@H](O)CC(=O)O` [(3R)-3-hydroxydodecanoic acid, reference compound], in assay [1] (Table 1.4b, solvent water), the MBC is above 865 mg/L. Moreover, in assay [2] (Table 1.4b, solvent water), the minimal kill concentration (20-minute contact) is 865 µg/mL.

For the molecule `CCCCCCCC(CC(=O)N(CCCC)CCCC)O[C@@H]1O[C@@H](C)[C@H](O)[C@@H](O)[C@H]1O[C@@H]1O[C@@H](C)[C@H](O)[C@@H](O)[C@H]1O` (stereo partly drawn) [N,N-dibutyl-3-(((2R,3R,4R,5R,6S)-4,5-dihydroxy-6-methyl-3-(((2S,3R,4R,5R,6S)-3,4,5-trihydroxy-6-methyltetrahydro-2H-pyran-2-yl)oxy)tetrahydro-2H-pyran-2-yl)oxy)decanamide], the MBC in assay [1] (setting [4]) is 5920 mg/L (≈ 10 mM). Further, the minimal kill concentration (20-minute contact) in assay [2] (setting [4]) was found to be 2960 µg/mL. Besides, in assay [3] (Table 5, solvent DMSO), the MBC was determined as 296 mg/L (≈ 0.5 mM) and the MIC was found to be 296 mg/L (≈ 0.5 mM).
